Patent US3954777A, “Aminopropionyl derivatives of 2,3-diphenyl cyclopropylamine” (Zambon S.p.A., priority 1970, dated 1976)
Counter-ions that a name gives are not always drawn. Like-named read-outs stand apart in the source and are kept apart here.

Key:
[1] = test system: crisis produced with electroshock; assay: Electroshock (M.E.S.), protection from extensor phase of hind paws; format: in vivo, male albine Swiss mice; conditions: Mus musculus
Protocol: (§1) The preferred method is that according to Schotten-Baumann. […] Preferably an excess of the same amine is used both as acid binding substance and as solvent. If the amine is a low-boiling one the reaction is carried out in a sealed tube while if the amine has a high-boiling point is preferred to operate at the boiling temperature of the reaction mixture. […] Materials and methods. The animals used in the tests, unless otherwise indicated, were male albine Swiss mice weighing 19-23 g; each animal has been used only once.
(§2) Electroshock (M.E.S.). The method followed in performing the electroshock is C. H. Cashin and J. Jackson's method (J.Pharm.Pharmacol.,1962, 14 (supl.) 445) modified as follows: the electrodes are placed in the outer ear which is, before the shock, filled with a physiological solution. The applied voltage is of 92 volts with a current of 50 Hz stabilized with Selonix H.T. 4420 stabilizer; duration of shock 0.2 seconds. […] (E. A. Swinyard, W. C. Brown; L. S. Goodman, J. Pharmacol., 1952, 106, 319) Schock by cardiazol (M.M.S.). 38 mg/kg of cardiazol, under the form of a 0.38% aqueous solution, is quickly injected in the dorsal vein of the mouse tail (L. S. Goodman, M. Singh Grewal, W. C. Brown, E. A. Swinyard, J. Pharmacol. 1953, 108, 168). The animals are considered as protected when the extensor phase of the hind paws is eliminated during the tonic crisis. The so obtained data have been elaborated by calculating the ED50 and the LD50 according to Lichtfield-Wilcoxon's method (J. Pharmacol. 1949, 96, 99).

in vivo = conditions: mouse, ip
Protocol: as §1, §2

[2] = test system: crisis produced with cardiazol; assay: Schock by cardiazol (M.M.S.), protection from extensor phase of hind paws; format: in vivo, male albine Swiss mice; conditions: Mus musculus
Protocol: as §1, §2

[3] = sc, 0.5 h, new compounds (Table 2), under skin, 30 minutes ante, as hydrochlorides, read-out: ED50 M.E.S.
[4] = sc, 0.5 h, new compounds (Table 2), under skin, 30 minutes ante, as hydrochlorides, cardiazol 38 mg/kg i.v., read-out: ED50 M.M.S.
[5] = sc, 0.5 h, reference compounds (Table 1), under skin, 30 minutes ante, read-out: M.E.S.-ED50
[6] = sc, 0.5 h, reference compounds (Table 1), under skin, 30 minutes ante, cardiazol 38 mg/kg i.v., read-out: M.M.S. ED50
[7] = sc, 0.5 h, read-out: M.M.S. ED50

CN1CCN(CCC(=O)NC2[C@H](c3ccccc3)[C@H]2c2ccccc2)CC1 (relative stereo) [cis-trans (line b82)]
ED50 [1, 3]: 275 mg/kg

CN(C)CCC(=O)NC1[C@H](c2ccccc2)[C@H]1c1ccccc1 (relative stereo) [cis-trans, R1 = CH3, R2 = CH3, N-(beta-dimethylamino)propionyl-2,3 -cis,trans-diphenylcyclopropylamine]
LD50 at 72 h (in vivo): 88 mg/kg
ED50 [1, 3]: 21.8 mg/kg
ED50 [2, 4]: 16.5 mg/kg

CCN(CC)CCC(=O)NC1[C@H](c2ccccc2)[C@H]1c1ccccc1 (relative stereo) [cis-trans, R1 = C2 H5, R2 = C2 H5, N-(beta-diethylamino)propionyl-2,3 -cis,trans-diphenylcyclopropylamine]
LD50 at 72 h (in vivo): 79 mg/kg
ED50 [1, 3]: 33.5 mg/kg
ED50 [2, 4]: 27 mg/kg

O=C1NC(=O)C(c2ccccc2)(c2ccccc2)N1 [phenitoine sodium salt, reference compound]
LD50 at 72 h (in vivo; in vivo): 120 mg/kg
ED50 [1, 5]: 15 mg/kg
ED50 [2, 6]: 7.1 mg/kg

O=C(CCN1CCCC1)NC1[C@H](c2ccccc2)[C@H]1c1ccccc1 (relative stereo) [cis-trans (line b76)]
ED50 [1, 3]: 24 mg/kg
ED50 [2, 4]: 20 mg/kg

CCC1(c2ccccc2)C(=O)NCNC1=O [primidone, reference compound]
ED50 ([2]; po, reference compound (Table 1), per os, 6 hours ante, cardiazol 38 mg/kg i.v., read-out: M.M.S. ED50): 5.2 mg/kg

CN(CCC(=O)NC1[C@H](c2ccccc2)[C@H]1c1ccccc1)Cc1ccccc1 (relative stereo) [cis-trans, R1 = CH3, R2 = CH2 --C6 H5, N-[beta-(N'-benzyl)methylamino]propionyl-2,3-cis,trans-diphenylcyclopropylamine hydrochloride]
ED50 [1, 3]: 91 mg/kg
ED50 [2, 4]: 98 mg/kg

CN1C(=O)OC(C)(C)C1=O [Trimethadione, reference compound]
ED50 [2, 7]: 175 mg/kg

O=C(CCN1CCCCC1)NC1[C@H](c2ccccc2)[C@H]1c1ccccc1 (relative stereo) [cis-trans (line b79)]
ED50 [1, 3]: 16 mg/kg
ED50 [2, 4]: 15 mg/kg

CCNCCC(=O)NC1[C@H](c2ccccc2)[C@H]1c1ccccc1 (relative stereo) [cis-trans, R1 = H, R2 = C2 H5, N-(beta-ethylamino)propionyl- 2,3 -cis,trans-diphenylcyclopropylamine hydrochloride]
LD50 at 72 h (in vivo): 89.5 mg/kg
ED50 [1, 3]: > 90 mg/kg
ED50 [2, 4]: > 90 mg/kg

Cc1ccccc1OCC(O)CO (centres unmarked) [mephenesin, reference compound]
ED50 [1, 5]: 245 mg/kg
ED50 [2, 6]: 180 mg/kg

CCC1(c2ccccc2)C(=O)NC(=O)NC1=O [Phenobarbital sodium salt, reference compound]
LD50 at 72 h (in vivo; in vivo): 182 mg/kg
ED50 ([1]; sc, 0.5 h, read-out: M.E.S.-ED50): 35 mg/kg
ED50 [2, 7]: 4.5 mg/kg

CNCCC(=O)NC1[C@H](c2ccccc2)[C@H]1c1ccccc1 (relative stereo) [cis-trans, R1 = H, R2 = CH3, N-(beta-methylamino)-propionyl-2,3 -cis,trans-diphenyl cyclopropylamine hydrochloride]
LD50 at 72 h (in vivo): 120 mg/kg
ED50 [1, 3]: > 120 mg/kg
ED50 [2, 4]: > 120 mg/kg

CN(C)C(=O)Nc1ccccc1 [Phenurone, 1,1-dimethyl-3-phenyl-urea, reference compound]
ED50 ([1]; po, 1 h, read-out: M.E.S.-ED50): 115 mg/kg
ED50 ([2]; po, 1 h, read-out: M.M.S. ED50): 50 mg/kg

CCC1(C)CC(=O)NC1=O (centres unmarked) [ethosuximide, reference compound]
ED50 [2, 6]: 50 mg/kg
